Where two headings read alike, the source gives them in different places.
How the values were obtained:
[1] = Pharmacokinetics after intravenous injection in rats; assay type: in vivo, Sprague Dawley (SD) rats; settings: for AUC∞/D / Co/D: dose normalized; for Co / half-life / MRT / clearance / Vd / AUC(0-inf) / AUC(0-t): plasma; for half-life / MRT / clearance / Vd / AUC(0-inf) / AUC(0-t): rat; for half-life / MRT: incomplete elimination phase; for Vd: read-out: Vd,ss
Experimental: Twelve rats were randomly divided into three groups (n = 4 per each group) and injected with an enavogliflozin solution at doses of 0.3, 1, and 3 mg/kg. The drug was dissolved in a mixture of 10% DMSO and 90% saline and administered intravenously via the tail vein. Before blood sampling, rats were anesthetized using 2% isoflurane in a vaporizer with an oxygen flow of 0.8 L/min, for 5 min. Blood samples (approximately 100 µL) were collected at 0, 0.05, 0.33, 0.67, 1, 2, 4, 6, and 8 h via the jugular vein under isoflurane anesthesia using a heparin-treated 1 mL syringe (Jung Lim Co. Ltd., Jincheon, Korea). Samples were centrifuged at 12,000× g for 1 min to separate the plasma. An aliquot (30 µL) of each plasma sample was stored at −80 °C until analysis.
(§1) Concentrations of enavogliflozin in plasma and tissue homogenate samples were analyzed using an Agilent 6430 triple quadrupole liquid chromatography-mass spectrometry (LC–MS/MS) system (Agilent, Wilmington, DE, USA) following a previously published method.
(§2) The data were expressed as the means ± standard deviation for the groups. Pharmacokinetic parameters, such as the area under the plasma concentration–time curve during the period of observation (AUClast), AUC to infinite time (AUC∞), clearance (CL), and volume of distribution at steady-state (Vd,ss), the terminal half-life (t1/2), and mean residence time (MRT) were calculated using non-compartment analysis with WinNonlin software (version 5.1; Pharsights, Cary, NC, USA). The AUC ratios were calculated by dividing the AUClast of enavogliflozin in the tissue samples by the plasma AUClast values of enavogliflozin [15].

[2] = Tissue distribution after single oral administration in mice; assay type: in vivo, ICR mice; settings: single oral 1 mg/kg; for half-life: read-out: T1/2 (elimination half-life) (converted); for AUC Ratio (AUC24 h, tissue / AUC24 h, plasma): 1 mg/kg
Experimental: Thirty-six ICR mice were fasted with water ad libitum for at least 12 h before oral administration of enavogliflozin and randomly divided into six groups (n = 6 per each sampling time point) and administered with an enavogliflozin solution at a dose of 1 mg/kg via oral gavage. Blood samples (approximately 0.2 mL) were collected at 0.5, 1, 2, 4, 8, 24 h via the abdominal artery. Subsequently, whole tissues, including stomach, small intestine, large intestine, liver, kidney, brain, heart, lung, spleen, and testis, were isolated. Blood samples were centrifuged at 12,000× g for 1 min to separate plasma. Tissue samples were minced thoroughly and homogenized with four volumes of saline using a tissue grinder. An aliquot (30 µL) of plasma and aliquots (50 µL) of tissue homogenate samples were stored at −80 °C until analysis.
as §1, §2

hepatocytes = test system: hepatocytes; design: method as in PMID 32932946; settings: rat hepatocytes; cited from earlier work
[3] = Pharmacokinetics after oral administration in mice; assay type: in vivo, ICR mice; settings: for AUC(0-inf) / AUC(0-t) / Cmax / half-life / MRT / Tmax / bioavailability: ICR, mouse, plasma; for bioavailability: po; for AUC∞/D / Cmax/D: dose normalized
Experimental: Mice were fasted with water ad libitum for at least 12 h before oral administration with enavogliflozin. Fifty-four mice were randomly divided into nine groups (n = 6 per group, Table 1) and were administered an enavogliflozin solution at doses of 0.3, 1, and 3 mg/kg via oral gavage. The drug was dissolved in a mixture of 10% DMSO and 90% saline. Blood samples were collected at 0, 0.083, 0.25, 0.5, 1, 2, 4, 8, and 24 h with the same procedures described above and provided in Table 1.
as §1, §2

Compound: OC[C@H]1O[C@@H](c2cc(Cc3ccc(C4CC4)cc3)c(Cl)c3c2CCO3)[C@H](O)[C@@H](O)[C@@H]1O [enavogliflozin, (2S,3R,4R,5S,6R)-2-(7-chloro-6-(4-cyclopropylbenzyl) -2,3-dihydrobenzofuran-4-yl)-6-(hydroxymethyl)tetrahydro-2H-pyran-3,4,5-triol]
- AUC∞/D ([1]; IV 0.3 mg/kg): 2831.6 ± 359.0
- Co/D ([1]; IV 0.3 mg/kg): 4231.2 ± 1720.0
- Co ([1]; IV 0.3 mg/kg): 1269.4 ± 516.0 ng/mL
- AUC∞/D ([1]; IV 1 mg/kg): 2798.6 ± 551.4
- Co/D ([1]; IV 1 mg/kg): 3956.4 ± 1028.2
- Co ([1]; IV 1 mg/kg): 3956.4 ± 1028.2 ng/mL
- AUC∞/D ([1]; IV 3 mg/kg): 2462.4 ± 429.3
- Co/D ([1]; IV 3 mg/kg): 3419.4 ± 1364.8
- Co ([1]; IV 3 mg/kg): 10,258.1 ± 4094.5 ng/mL
- plasma concentrations at 24 h ([1]; IV 0.3, 1, and 3 mg/kg groups): below the detection limit
- half-life ([1]; Sprague Dawley, IV 0.3 mg/kg): 2.6 ± 0.4 h
- half-life ([1]; Sprague Dawley, IV 1 mg/kg): 2.9 ± 0.4 h
- half-life ([1]; Sprague Dawley, IV 3 mg/kg): 4.3 ± 0.6 h
- MRT ([1]; Sprague Dawley, IV 0.3 mg/kg): 2.5 ± 0.4 h
- clearance ([1]; Sprague Dawley, IV 0.3 mg/kg, read-out: CL): 6 ± 0.8 mL/min/kg
- Vd ([1]; Sprague Dawley, IV 0.3 mg/kg): 0.9 ± 0.2 L/kg
- MRT ([1]; Sprague Dawley, IV 1 mg/kg): 2.9 ± 0.4 h
- clearance ([1]; Sprague Dawley, IV 1 mg/kg, read-out: CL): 6.2 ± 1.4 mL/min/kg
- Vd ([1]; Sprague Dawley, IV 1 mg/kg): 1.1 ± 0.1 L/kg
- MRT ([1]; Sprague Dawley, IV 3 mg/kg): 5.1 ± 1.1 h
- clearance ([1]; Sprague Dawley, IV 3 mg/kg, read-out: CL): 6.9 ± 1.2 mL/min/kg
- Vd ([1]; Sprague Dawley, IV 3 mg/kg): 2.1 ± 0.4 L/kg
- AUC(0-inf) ([1]; Sprague-Dawley, IV 0.3 mg/kg): 850 ± 108 ng·h/mL
- AUC(0-t) ([1]; Sprague-Dawley, IV 0.3 mg/kg): 784 ± 94.4 ng·h/mL
- AUC(0-inf) ([1]; Sprague-Dawley, IV 1 mg/kg): 2800 ± 551 ng·h/mL
- AUC(0-t) ([1]; Sprague-Dawley, IV 1 mg/kg): 2510 ± 447 ng·h/mL
- AUC(0-inf) ([1]; Sprague-Dawley, IV 3 mg/kg): 7390 ± 1290 ng·h/mL
- AUC(0-t) ([1]; Sprague-Dawley, IV 3 mg/kg): 5610 ± 751 ng·h/mL
- clearance ([1]; Sprague-Dawley, IV 0.3–3 mg/kg, all doses together, read-out: Systemic clearance): 6.35 ± 1.14 mL/min/kg
- Kp ([2]; male, ICR, mouse, kidney (versus plasma), kidney, read-out: AUC Ratio (AUC24 h, tissue / AUC24 h, plasma)): 41.9
- Kp ([2]; male, ICR, mouse, kidney and intestinal tract (versus plasma), read-out: AUC ratio of kidney and intestinal tract compared with plasma): > 10
- Kp ([2]; male, ICR, mouse, large intestine (versus plasma), range over stomach, small and large intestine, read-out: plasma AUC ratio, gastrointestinal tract): 8.5 to 12.1
- Kp ([2]; male, ICR, mouse, liver (versus plasma), liver, read-out: AUC Ratio (AUC24 h, tissue / AUC24 h, plasma)): 5.8
- Kp ([2]; male, ICR, mouse, heart, read-out: AUC Ratio (AUC24 h, tissue / AUC24 h, plasma)): 1.7 ± 0.2
- half-life ([2]; male, ICR, mouse, heart): 3.6 h
- half-life ([2]; male, ICR, mouse, kidney): 29 h
- Kp ([2]; male, ICR, mouse, large intestine, read-out: AUC Ratio (AUC24 h, tissue / AUC24 h, plasma)): 8.5 ± 4.5
- half-life ([2]; male, ICR, mouse, large intestine): 3.4 h
- half-life ([2]; male, ICR, mouse, liver): 4.4 h
- Kp ([2]; male, ICR, mouse, lung, read-out: AUC Ratio (AUC24 h, tissue / AUC24 h, plasma)): 2 ± 0.2
- half-life ([2]; male, ICR, mouse, lung): 9.6 h
- AUC(0-t) ([2]; male, ICR, mouse, plasma, read-out: AUC24 h): 1360 ± 260 ng·h/mL
- half-life ([2]; male, ICR, mouse, plasma): 3.7 h
- Kp ([2]; male, ICR, mouse, small intestine, read-out: AUC Ratio (AUC24 h, tissue / AUC24 h, plasma)): 10.8 ± 3
- half-life ([2]; male, ICR, mouse, small intestine): 2.6 h
- Kp ([2]; male, ICR, mouse, spleen, read-out: AUC Ratio (AUC24 h, tissue / AUC24 h, plasma)): 0.4
- half-life ([2]; male, ICR, mouse, spleen): 2.7 h
- Kp ([2]; male, ICR, mouse, stomach, read-out: AUC Ratio (AUC24 h, tissue / AUC24 h, plasma)): 12.1 ± 7
- half-life ([2]; male, ICR, mouse, stomach): 3.4 h
- Kp ([2]; male, ICR, mouse, testis, read-out: AUC Ratio (AUC24 h, tissue / AUC24 h, plasma)): 0.5 ± 0.1
- half-life ([2]; male, ICR, mouse, testis): 22 h
- Kp ([2]; male, ICR, mouse, versus plasma, read-out: AUC ratio in stomach, small intestine, large intestine, liver): > 5
- Concentration in brain tissue ([2]; brain): not detected
- AUC24 h ([2]; heart): 2.19 ± 0.35 µg·h/g
- K (elimination constant) ([2]; heart): 0.194 h⁻¹
- AUC24 h ([2]; kidney): 54.5 ± 3.5 µg·h/g
- K (elimination constant) ([2]; kidney): 0.024 h⁻¹
- AUC Ratio (AUC24 h, tissue / AUC24 h, plasma) ([2]; kidney): 41.9 ± 7.7
- AUC24 h ([2]; large intestine): 11.1 ± 4.3 µg·h/g
- K (elimination constant) ([2]; large intestine): 0.204 h⁻¹
- AUC24 h ([2]; liver): 8.08 ± 1.1 µg·h/g
- K (elimination constant) ([2]; liver): 0.159 h⁻¹
- AUC Ratio (AUC24 h, tissue / AUC24 h, plasma) ([2]; liver): 5.8 ± 0.4
- AUC24 h ([2]; lung): 3.04 ± 0.29 µg·h/g
- K (elimination constant) ([2]; lung): 0.072 h⁻¹
- K (elimination constant) ([2]; plasma): 0.185 h⁻¹
- AUC24 h ([2]; small intestine): 14.2 ± 3.4 µg·h/g
- K (elimination constant) ([2]; small intestine): 0.267 h⁻¹
- AUC24 h ([2]; spleen): 0.58 ± 0.11 µg·h/g
- K (elimination constant) ([2]; spleen): 0.255 h⁻¹
- AUC24 h ([2]; stomach): 15.1 ± 6.4 µg·h/g
- K (elimination constant) ([2]; stomach): 0.206 h⁻¹
- AUC24 h ([2]; testis): 0.95 ± 0.15 µg·h/g
- K (elimination constant) ([2]; testis): 0.031 h⁻¹
- In vitro hepatic clearance (hepatocytes): 8.3 mL/min/kg
- AUC(0-inf) ([3]; PO 0.3 mg/kg): 498 ± 79 ng·h/mL
- AUC(0-t) ([3]; PO 0.3 mg/kg): 488 ± 77.9 ng·h/mL
- Cmax ([3]; PO 0.3 mg/kg): 72.1 ± 10.5 ng/mL
- half-life ([3]; PO 0.3 mg/kg): 4.3 ± 0.5 h
- AUC(0-inf) ([3]; PO 1 mg/kg): 1370 ± 270 ng·h/mL
- AUC(0-t) ([3]; PO 1 mg/kg): 1360 ± 270 ng·h/mL
- Cmax ([3]; PO 1 mg/kg): 216 ± 94.1 ng/mL
- half-life ([3]; PO 1 mg/kg): 3.5 ± 0.2 h
- AUC(0-inf) ([3]; PO 3 mg/kg): 4760 ± 543 ng·h/mL
- AUC(0-t) ([3]; PO 3 mg/kg): 4740 ± 532 ng·h/mL
- Cmax ([3]; PO 3 mg/kg): 943 ± 231 ng/mL
- half-life ([3]; PO 3 mg/kg): 3.3 ± 0.4 h
- MRT ([3]; PO 0.3 mg/kg): 5.7 ± 0.5 h
- Tmax ([3]; PO 0.3 mg/kg): 1.5 ± 0.5 h
- MRT ([3]; PO 1 mg/kg): 5.7 ± 0.5 h
- MRT ([3]; PO 3 mg/kg): 5.3 ± 0.5 h
- Tmax ([3]; PO 3 mg/kg): 0.9 ± 0.3 h
- bioavailability ([3]; 0.3 mg/kg, PO 0.3 mg/kg, AUC∞,PO / AUC∞,IV, read-out: BA (absolute bioavailability)): 97.2%
- bioavailability ([3]; 1 mg/kg, PO 1 mg/kg, AUC∞,PO / AUC∞,IV, read-out: BA (absolute bioavailability)): 84.5%
- bioavailability ([3]; 3 mg/kg, PO 3 mg/kg, AUC∞,PO / AUC∞,IV, read-out: BA (absolute bioavailability)): 93.7%
- bioavailability ([3]; 3 mg/kg, range over doses 0.3, 1 and 3 mg/kg, read-out: Oral bioavailability): 84.5 to 97.2%
- AUC∞/D ([3]; PO 0.3 mg/kg): 1658.9 ± 263.5
- Cmax/D ([3]; PO 0.3 mg/kg): 240.5 ± 35.0
- AUC∞/D ([3]; PO 1 mg/kg): 1373.8 ± 269.6
- Cmax/D ([3]; PO 1 mg/kg): 216.1 ± 94.1
- AUC∞/D ([3]; PO 3 mg/kg): 1587.0 ± 181.1
- Cmax/D ([3]; PO 3 mg/kg): 314.3 ± 76.9
